# Experimental data from patent US8222293B2, “Treating learning deficits with inhibitors of Hmg CoA reductase” (Regents of the University of Carolina, priority 2004, dated 2012).
# Assays:
# nf1+/− mice [1] = experiment: Lateralized reaction time task (attention); type: in vivo, mouse; settings: 10 mg/kg oral pellets daily, target stimulus duration 0.5 sec
# Text: Mice were fed 1.5 gm of chow every day in their home cages (1 hr after experiment). […] Mice were trained in miniaturized versions of a “5-choice” box (Med Associates Inc., St Albans Vt.) that was equipped with a curved wall with horizontal array five apertures that could be internally illuminated. The opposite wall was fitted with a food receptacle where pellets were delivered as reinforcers. The animals were shaped to produce a “poke and hold” response in the central aperture. A correct response was scored when the animals correctly poked a side aperture that had been indicated during the poke and hold response. […] When animals performed at 75% accuracy at 1 second target stimulus duration they entered the test phase. Mice were tested on a variable duration condition in which the target aperture was illuminated for 0.5, 1.0 or 2.0 sec (varied from trial to trial within the session). Correct responses/total trials were measured, which vary as a function of the target stimulus duration and was therefore analyzed with repeated measures analysis of variance (the repeated measure being stimulus duration).
# Besides spatial impairments, NF-1 patients also show attention deficits. […] For this purpose, a lateralized reaction-time task, a test that measures divided visuo-spatial attention, was used. […]
# nf1+/− mice [2] = experiment: Water maze test (spatial learning); type: in vivo, mouse
# Text: The basic protocol for the water maze experiments has been previously described. Mice from the 129T2/SvEmsJ-C57B/6N F1 genetic background were given two trials per day (30-s inter-trial intervals) with a probe trial (60 s) at the end of training day 5 and 7.
# Spatial problems are among the most common cognitive deficits in individuals affected with NF1. […] Mice were trained with two trials per day.
# In the probe trials the platform was removed from the pool and the mice were allowed to search for it for 60 seconds.
# [3] = tested on: phosphorylated p44/42 MAPK; experiment: Western blot for p44/42 MAP kinase phosphorylation in hippocampal extracts of treated mice
# [4] = tested on: hippocampal slices of nf1+/− mice; experiment: Hippocampal LTP at the Schaffer collateral/CA1 synapse in slices from treated mice; type: in vivo, mouse; settings: 10 mg/kg s.c. once per day for 4 days
# p21Ras-GTP = experiment: p21Ras activity assay (GST-Raf1-RBD pull-down) in hippocampal extracts of treated mice
# nf1+/− mice [5] = experiment: Prepulse inhibition; type: in vivo, mouse
# Method: Following an acclimation period of 5 min, mice were presented with a total of 20 noise bursts (40 ms duration, 120 dB, <1 ms rise/fall time). In the prepulse inhibition phase, mice were presented with a total of 90 trials. Three prepulse intensities were tested: 70, 75 and 80 dB. Prepulses were 20 ms in duration with a rise/fall time of less than 1 ms. For each prepulse intensity, there were three types of trial: prepulse alone, prepulse/startle stimulus and startle stimulus alone. In the prepulse/startle stimulus trial, the onset of the prepulse preceded the onset of the startle stimulus by 100 ms. Background noise levels were maintained at 68 dB throughout testing, and the trials were spaced […].
# This task assays sensory “gating” of environmental stimuli. A powerful and sudden acoustic stimulus will elicit a whole body startle response. When the startle producing stimulus is preceded by a weak pre-stimulus (by approximately 100 milliseconds) the startle response is inhibited in normal persons and animals. Previous studies show a high incidence of ADHD in NF1 and support an association between ADHD and learning problems in these children.
smiles,measurement,setting,value
CC[C@H](C)C(=O)O[C@H]1C[C@@H](C)C=C2C=C[C@H](C)[C@H](CC[C@@H]3C[C@@H](O)CC(=O)O3)[C@H]21 [lovastatin],"correct response rate, versus nf1+/− given placebo",nf1+/− mice [1]; PLSD P<0.05,significantly higher
same,"correct response rate, versus WT mice",nf1+/− mice [1]; PLSD P=0.148,indistinguishable from that of WT mice
same,"proximity to exact platform position versus opposite position, probe trial","nf1+/− mice [2]; WT mice on lovastatin, t19=2.159, P<0.05",searched closer to the exact platform position than to the opposite position in the pool
same,cognitive function in control mice,nf1+/− mice [2]; dose effective in nf1+/− mice (10 mg/kg),did not affect cognitive function in control mice
same,"proximity to exact platform position versus opposite position, probe trial","nf1+/− mice [2]; nf1+/− mice on lovastatin, t20=2.170, P<0.05",searched closer to the exact platform position than to the opposite position in the pool
same,"time spent in training quadrant, day 7 probe trial, versus WT","nf1+/− mice [2]; nf1+/− mice, 10 mg/kg s.c. 3 days before training then 6 hours before training daily, P=0.862",spent as much time as WTs in the training quadrant
same,"time spent in training quadrant, day 7 probe trial, versus mutants given placebo","nf1+/− mice [2]; nf1+/− mice, 10 mg/kg s.c., P<0.05",significantly more time than mutants given placebo
same,amount of phosphorylated p44/42 MAPK (the active form) in hippocampus,"[3]; WT mice, 0-50 mg/kg s.c. once per day for 4 days, 6 hours after final injection",decreased the amount of phosphorylated p44/42 MAPK (the active form) in a dose-dependent fashion
same,levels of phosphorylated p44/42 MAPK in hippocampus,"[3]; nf1+/− mice, 10 mg/kg s.c. once per day for 4 days",decreased the levels of phosphorylated p44/42 MAPK
same,LTP deficits of nf1+/− mice,[4],completely reversed the LTP deficits
same,"amount of LTP induced, versus WT","[4]; nf1+/− mice, PLSD P=0.602",equivalent to that of WTs
same,"amount of LTP induced, versus untreated nf1+/− mutants","[4]; nf1+/− mice, five theta-burst stimulation, PLSD P<0.05",significantly higher than that induced in mutants
same,hippocampal levels of p21Ras-GTP,p21Ras-GTP; WT as printed in b156 (FIG. 1c),decreased the hippocampal levels of p21Ras-GTP in WT
same,active p21Ras (p21Ras-GTP),"p21Ras-GTP; nf1+/− mice, FIG. 1c legend",decreased active p21Ras (p21Ras-GTP)
same,"PPI performance, main effect of treatment","nf1+/− mice [5]; 10 mg/kg oral pellets daily, F1,30=6.61, P<0.05",resulted in an increase in performance
same,"PPI performance, versus WT animals on placebo","nf1+/− mice [5]; nf1+/− animals on lovastatin, PLSD P=0.877",indistinguishable from that of WT animals on placebo
